Laboratory results taken from patent US20170022201A1, “MACROCYLIC PYRIDINE DERIVATIVES” (Janssen Pharmaceutica NV, priority 2014, published 2017).

How the values were obtained:
EF2K = biological target: T1, EF2K (Homo sapiens, UniProt O00418); test: Biochemical EF2K lysate-based kinase assay (AlphaLISA p-eEF2 Thr56); settings: LN-229 cell lysates, 10 mM ATP, pH 6.6; pIC50 = -log IC50 (M); read-out: eEF2K_C_alphalisa pIC50 (converted)
T1 construct: host or cells: LN-229 glioblastoma cell lysate
T1 sequence (O00418 1-725): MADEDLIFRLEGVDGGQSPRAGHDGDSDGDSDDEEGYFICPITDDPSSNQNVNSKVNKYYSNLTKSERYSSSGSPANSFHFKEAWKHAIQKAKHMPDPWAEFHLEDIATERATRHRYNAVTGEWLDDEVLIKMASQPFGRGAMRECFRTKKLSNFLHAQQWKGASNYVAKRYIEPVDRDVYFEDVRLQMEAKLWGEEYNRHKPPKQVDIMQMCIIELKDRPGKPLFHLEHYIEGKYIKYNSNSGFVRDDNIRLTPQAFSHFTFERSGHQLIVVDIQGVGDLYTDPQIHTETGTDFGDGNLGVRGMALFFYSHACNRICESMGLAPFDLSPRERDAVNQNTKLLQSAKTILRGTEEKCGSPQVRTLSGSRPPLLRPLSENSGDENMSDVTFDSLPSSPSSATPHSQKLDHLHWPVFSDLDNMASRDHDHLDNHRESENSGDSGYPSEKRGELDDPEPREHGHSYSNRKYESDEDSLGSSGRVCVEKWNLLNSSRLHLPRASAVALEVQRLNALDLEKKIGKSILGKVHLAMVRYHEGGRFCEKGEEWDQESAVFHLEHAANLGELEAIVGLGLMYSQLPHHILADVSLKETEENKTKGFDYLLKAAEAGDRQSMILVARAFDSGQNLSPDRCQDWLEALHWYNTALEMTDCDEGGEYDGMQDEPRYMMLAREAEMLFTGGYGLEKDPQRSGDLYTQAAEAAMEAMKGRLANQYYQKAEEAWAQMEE
Procedure, shortened: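 LN-229 glioblastoma lysate supplied both EF2K and eEF2 substrate; compound incubated with lysate 15 minutes at room temperature at pH 6.6 with 10 mM Mg2+ and 10 mM ATP, then stopped with excess EDTA. Thr56-phosphorylated eEF2 detected by sandwich AlphaLISA, final read after overnight standing.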

eEF2K = biological target: T2, eEF2K (Homo sapiens, UniProt O00418); test: EF2K cell-based assay (P-EF2 AlphaLISA, 2-deoxyglucose stimulated MCF10A cells); settings: 2.5 mM 2-deoxyglucose 4 h, phosphorylation of EF2 at Thr 56, pIC50 = -log IC50 (M); for IC50: read-out: eEF2K_C_PThr56 pIC50 (converted)
T2 construct: in the immortalized epithelial breast cell lines, MCF10A; host or cells: MCF10A immortalized breast epithelial cells
T2 sequence (O00418 1-725): T1 sequence (O00418 1-725)
Procedure, shortened: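 MCF10A cells pretreated with compound for 1 h, then stimulated with 2.5 mM 2-deoxyglucose for 4 h to deplete ATP and activate AMPK. Phospho-EF2 in lysates measured by AlphaLISA.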

PIK3C3 lipid kinase = PIK3C3 lipid kinase (Homo sapiens, UniProt Q8NEB9); test: Biochemical Vps34 lipid kinase assay (ADP-Glo); settings: 20 μM ATP; for IC50: serial dilution 10 μM to 0.3 nM, pIC50 = -log IC50 (M); for remaining activity at 1 µM: 1 h, read-out: VPS34_1microM_%ofcntrl; for remaining activity at 1 µM / VPS34_1microM_%ofcntrl: single dose 1 μM, residual activity compared to control (DMSO)
Protocol: A non-radiometric kinase assay (ADP-Glo™ Assay, Promega, Madison, Wi, USA) was used for measuring the kinase activity of the PIK3C3 lipid kinase. All kinase assays were performed in 96-well half-area microtiter plates in a 25 μl reaction volume. The reaction cocktail was pipetted in 3 steps in the following order: • 10 μl of ATP solution (in assay buffer, see below) • 5 μl of test sample in 5% DMSO 10 μl of enzyme/substrate mixture
All lipid kinase assays contained 50 mM HEPES (4-(2-hydroxyethyl)-1-piperazineethanesulfonic acid)—NaOH, pH 7.5, 1 mM EGTA ((ethylene glycol tetraacetic acid), 100 mM NaCl, 0.03% CHAPS (3-[(3-Cholamidopropyl) dimethylammonio]-1-propanesulfonate), 2 mM DTT (Dithiothreitol), 20 μM ATP (corresponding to the apparent ATP-Km), kinase (7.6 nM) and substrate (50 μM). The assay for PIK3C3 additionally contained 3 mM MnCl2.
The reaction cocktails were incubated at 30° C. for 60 minutes. The reaction was stopped with 25 μl ADP-Glo™ reagent per well. Plates were incubated for 40 minutes at room temperature, followed by addition of 50 μl kinase detection reagent per well and incubation for 60 minutes at room temperature. Signal was determined with a microplate luminescence reader (Victor, Perkin Elmer). The assay was either performed using a single dose of compound (1 μM final concentration in the assay reaction) with resulting data expressed as residual activity compared to control (DMSO), or using a serial (half-log) dilution of compounds starting at 10 μM and down to 0.3 nM (final concentrations in the assay) with data expressed as the pIC50.

PIK3C3 lipid kinase, sequence (Q8NEB9 whole entry): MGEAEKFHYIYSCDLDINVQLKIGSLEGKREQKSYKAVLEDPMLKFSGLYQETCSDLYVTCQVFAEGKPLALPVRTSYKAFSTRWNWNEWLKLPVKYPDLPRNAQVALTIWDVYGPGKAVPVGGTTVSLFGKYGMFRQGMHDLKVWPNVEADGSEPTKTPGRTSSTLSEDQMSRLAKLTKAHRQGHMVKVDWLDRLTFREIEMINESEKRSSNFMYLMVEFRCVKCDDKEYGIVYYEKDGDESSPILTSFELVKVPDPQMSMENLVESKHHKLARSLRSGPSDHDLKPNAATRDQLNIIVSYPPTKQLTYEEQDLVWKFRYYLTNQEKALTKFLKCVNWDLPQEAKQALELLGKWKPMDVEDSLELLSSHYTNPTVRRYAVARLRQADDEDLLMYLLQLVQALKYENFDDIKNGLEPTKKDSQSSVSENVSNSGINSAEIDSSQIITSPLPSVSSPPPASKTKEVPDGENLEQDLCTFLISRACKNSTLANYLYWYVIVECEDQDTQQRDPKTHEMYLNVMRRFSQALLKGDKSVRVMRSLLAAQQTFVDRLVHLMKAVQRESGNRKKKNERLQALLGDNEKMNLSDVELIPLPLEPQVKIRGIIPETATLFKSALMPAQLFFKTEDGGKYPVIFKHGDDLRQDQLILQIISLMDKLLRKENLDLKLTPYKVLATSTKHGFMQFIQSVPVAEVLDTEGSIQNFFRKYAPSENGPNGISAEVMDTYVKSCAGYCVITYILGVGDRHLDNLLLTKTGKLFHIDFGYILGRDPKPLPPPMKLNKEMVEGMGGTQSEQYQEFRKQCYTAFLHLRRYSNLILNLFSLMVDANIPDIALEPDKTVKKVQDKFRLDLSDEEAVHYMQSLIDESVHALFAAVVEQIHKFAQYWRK

SMILES	IC50 (EF2K) [M]	IC50 (eEF2K) [M]	IC50 (PIK3C3 lipid kinase) [M]	remaining activity at 1 µM (PIK3C3 lipid kinase) [%]	VPS34_1microM_%ofcntrl (PIK3C3 lipid kinase) [%]	eEF2K_C_PThr56 pIC50 (eEF2K)
CC1CN2CCN1Cc1cccc(c1)Nc1cc(ccn1)-c1cnc(nc1)N1CC(O)CC1CCNC(=O)C2 (stereo not shown) [Compound 60]	6.61e-08	4.79e-06		86.8		
CC1CN2CCN1Cc1cccc(c1)Nc1cc(ccn1)-c1cnc(nc1)N1CC(O)CC1CCNC(=O)C2 (stereo not shown) [Compound 61]	1.26e-08	4.27e-07			80.70	
CC1(C)c2cccc(c2)Nc2cc(ccn2)-c2cnc(nc2)NCCCNC(=O)CN2CCN1CC2 [Compound 74]	1.2e-07	1.51e-06		70.1		
[N-]=[N+]=N[C@H]1C[C@H]2CCNC(=O)C3(CC3)N3CCN(CC3)Cc3cccc(c3)Nc3cc(ccn3)-c3cnc(nc3)N2C1 [Compound 83]	8.71e-09	6.61e-07		42.3		
NS(=O)(=O)NC1CC2CCNC(=O)CN3CCN(CC3)Cc3cccc(c3)Nc3cc(ccn3)-c3cnc(nc3)N2C1 (stereo not shown) [Compound 86]	3.39e-07	> 1e-05		68		
O=C1CN2CCC(CC2)Oc2cccc(c2)Nc2cc(ccn2)-c2cnc(nc2)NCCCN1 [Compound 90]	1.91e-08	5.25e-07	6.17e-08			
O=C1NCCCNc2ncc(cn2)-c2ccnc(c2)Nc2cccc(c2)NC2CCN(CC2)C12CC2 [Compound 100]	6.17e-08	2.75e-06	3.55e-07	14.9		
O=C1NCCCNc2ncc(cn2)-c2ccnc(c2)Nc2cccc(c2)CN2CCN(CC2)C12CC2 [Compound 107]	6.76e-09	3.55e-07	3.31e-07			
COC(=O)C1CCNC(=O)CN2CCN(CC2)Cc2cccc(c2)Nc2cc(ccn2)-c2cnc(nc2)N1 (stereo not shown) [Compound 116]	2.69e-06	1.91e-05		33.5		
O=C1CN2CCN(CC2)Cc2cccc(c2)Nc2cc(ccn2)-c2cnc(nc2)NC(C(=O)O)CCN1 (stereo not shown) [Compound 117]	4.57e-07		1.41e-07		16.31	<4.52
O=C1CN2CCN(CC2)Cc2cccc(c2)Nc2cc(ccn2)-c2cnc(nc2)NC(C(=O)O)CCN1 (stereo not shown) [Compound 119]	2.75e-07				58.90	<4.52
NC(=O)C1CCNC(=O)CN2CCN(CC2)Cc2cccc(c2)Nc2cc(ccn2)-c2cnc(nc2)N1 (stereo not shown) [Compound 121]	5.13e-06	> 1e-05	2.63e-06			
CNC(=O)C1CCNC(=O)CN2CCN(CC2)Cc2cccc(c2)Nc2cc(ccn2)-c2cnc(nc2)N1 (stereo not shown) [Compound 122]	1.91e-05	1.41e-05		39.5		
NC(=O)C1CCNC(=O)CN2CCN(CC2)Cc2cccc(c2)Nc2cc(ccn2)-c2cnc(nc2)N1 (stereo not shown) [Compound 123]	4.47e-07	5.37e-06		73.4		
O=C1CN2CCN(CC2)Cc2cccc(c2)Nc2cc(ccn2)-c2cnc(nc2)NCCS(=O)(=O)N1 [Compound 126]	2.82e-07	> 3.02e-05		52.7		

Next, values leading:

IC50 (EF2K) [M]	IC50 (eEF2K) [M]	IC50 (PIK3C3 lipid kinase) [M]	remaining activity at 1 µM (PIK3C3 lipid kinase) [%]	VPS34_1microM_%ofcntrl (PIK3C3 lipid kinase) [%]	eEF2K_C_PThr56 pIC50 (eEF2K)	SMILES
3.47e-08	8.51e-07	4.17e-07				CC1CN2CCN1Cc1cccc(c1)Nc1cc(ccn1)-c1cnc(nc1)N1CC(O)CC1CCNC(=O)C2 (stereo not shown) [Compound 59]
5.5e-09	8.51e-08	1.23e-06				CC1CN2CCN1Cc1cccc(c1)Nc1cc(ccn1)-c1cnc(nc1)N1CC(O)CC1CCNC(=O)C2 (stereo not shown) [Compound 62]
~3.55e-07	3.98e-06		34			O=C1CN2CCN(CC2)Cc2cccc(c2)Nc2cc(ccn2)-c2ccc(nc2)NCCCN1 [Compound 67]
5.13e-07	> 3.02e-05	4.68e-06				CN1CCCN(C)c2ccc(cn2)-c2ccnc(c2)Nc2cccc(c2)CN2CCN(CC2)CC1=O [Compound 68]
2.88e-07	5.89e-06		50.8			CN1CCCNC(=O)CN2CCN(CC2)Cc2cccc(c2)Nc2cc(ccn2)-c2ccc1nc2 [Compound 72]
5.25e-06	> 1e-05	> 1e-05				O=C1CN2CCN(CC2)C2(CC2)c2cccc(c2)Nc2cc(ccn2)-c2cnc(nc2)NCCCN1 [Compound 73]
4.27e-08	3.8e-06			86.17		N#CC1CC2CCNC(=O)CN3CCN(CC3)Cc3cccc(c3)Nc3cc(ccn3)-c3cnc(nc3)N2C1 (stereo not shown) [Compound 77]
3.72e-08	2.24e-06			43.17		N#CC1CC2CCNC(=O)CN3CCN(CC3)Cc3cccc(c3)Nc3cc(ccn3)-c3cnc(nc3)N2C1 (stereo not shown) [Compound 78]
7.24e-08	1.02e-06	3.24e-07	21.6			NC1CC2CCNC(=O)CN3CCN(CC3)Cc3cccc(c3)Nc3cc(ccn3)-c3cnc(nc3)N2C1 (stereo not shown) [Compound 84]
1.95e-08	~2.29e-06		33.8			NS(=O)(=O)NC1CC2CCNC(=O)C3(CC3)N3CCN(CC3)Cc3cccc(c3)Nc3cc(ccn3)-c3cnc(nc3)N2C1 (stereo not shown) [Compound 87]
6.46e-08	4.57e-07		66.5			O=C1CC2CCNC(=O)CN3CCN(CC3)Cc3cccc(c3)Nc3cc(ccn3)-c3cnc(nc3)N2C1 (stereo not shown) [Compound 88]
2e-07	3.98e-06		31.1			CN1c2cccc(c2)Nc2cc(ccn2)-c2cnc(nc2)NCCCNC(=O)CN2CCC1CC2 [Compound 101]
6.31e-07	> 3.02e-05	2.95e-07		23.74		O=C1CN2CCN(CC2)Cc2cccc(c2)Nc2cc(ccn2)-c2cnc(nc2)NC(C(=O)O)CCN1 (stereo not shown) [Compound 120]
